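A five-concentration, 48-hour dose response in 96-well plates underlies each endpoint, interpolated linearly between surrounding concentrations. Abbreviation: GI50, concentration required for 50% inhibition of growth.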 The source made the active and inactive calls. No stated cut-off is given here; in the data, active = GI50 up to about 1.1 µM and inactive = higher.
Legend:
Test in all cases: inhibition of tumour cell growth, NCI panel, 48 h
[1] = tested on: BT-549
[2] = tested on: SR
[3] = tested on: UACC-257
[4] = tested on: KM12
[5] = tested on: NCI-H522
[6] = tested on: SNB-75
[7] = tested on: SNB-19
[8] = tested on: CCRF-CEM
[9] = tested on: OVCAR-8
[10] = tested on: SK-MEL-5
[11] = tested on: ACHN
[12] = tested on: MDA-N
[13] = tested on: NCI-H23
[14] = tested on: LOX IMVI
[15] = tested on: SW-620
[16] = tested on: MOLT-4
[17] = tested on: MDA-MB-231
[18] = tested on: MDA-MB-435
[19] = tested on: HCT-116
[20] = tested on: Malme-3M

Measured: GI50

CC(=N/NC(N)=S)/C(C)=N/NC(N)=S
inactive: [1] > 100 µM | [2] > 100 µM | [3] > 100 µM | [4] > 100 µM | [5] > 100 µM | [6] > 100 µM | [7] > 100 µM | [8] > 100 µM | [9] > 100 µM | [10] > 100 µM | [11] > 100 µM | [12] > 100 µM | [13] > 100 µM | [14] > 100 µM | [15] > 100 µM | [16] > 100 µM | [17] > 100 µM | [18] > 100 µM | [19] > 100 µM | [20] > 100 µM

COc1ccc(C(=O)N(C(=O)N2CCN(c3ccccc3)CC2)S(=O)(=O)c2ccccc2)cc1
inactive: [1] 33.3 µM | [2] 18.8 µM | [3] 31.4 µM | [4] 31.6 µM | [5] 15.4 µM | [6] 32.7 µM | [7] 24.7 µM | [8] 25.1 µM | [9] 19.8 µM | [10] 14.5 µM | [11] 18.8 µM | [12] 23.9 µM | [13] 24.1 µM | [14] 13.7 µM | [15] 37.4 µM | [16] 19.5 µM | [17] 25.3 µM | [18] 29.5 µM | [19] 18.8 µM | [20] 28.2 µM

O=S(=O)(c1ccccc1)[C@@H]1[C@H]2C=C[C@](CS)(O2)[C@H]1S(=O)(=O)c1ccccc1
inactive: [1] 35.2 µM | [2] 25.6 µM | [3] > 100 µM | [4] > 100 µM | [5] 14.7 µM | [6] 67.5 µM | [7] > 100 µM | [8] 2.46 µM | [9] 50.1 µM | [10] > 100 µM | [11] 76.9 µM | [12] 82.8 µM | [13] 79.6 µM | [14] 44.6 µM | [15] 12.4 µM | [16] 16.5 µM | [17] > 100 µM | [18] 46.2 µM | [19] 13.3 µM | [20] > 100 µM

N#CC(C#N)=C(N)/C(C#N)=C/c1cc(O)c(O)c(Br)c1
inactive: [1] > 100 µM | [2] 37.8 µM | [3] 72.4 µM | [4] 75.9 µM | [5] 40.5 µM | [6] 52.7 µM | [7] > 67.3 µM | [8] 28.2 µM | [9] 48.1 µM | [10] 60.3 µM | [11] 77.1 µM | [12] 99.5 µM | [13] > 100 µM | [14] 42 µM | [15] 51.6 µM | [16] 36.2 µM | [17] 88.5 µM | [18] 78.5 µM | [19] 37.8 µM | [20] 85.7 µM

Reference: ChEMBL document CHEMBL1201862, “PubChem BioAssay data set” (2004)
